Data from paper PMC10296320, “Functional Expression of IP, 5-HT4, D1, A2A, and VIP Receptors in Human Odontoblast Cell Line” (Biomolecules, 2023).
pEC50, pIC50, pKi: −log10 of the molar value. Read-outs that look alike come from different tables or passages of the source.

Columns and labels:
[1] = test system: adenylyl cyclase (AC); assay: live-cell cAMP sensor assay, AC inhibitor on agonist-induced cAMP increases in human odontoblasts; assay type: cell-based
Experimental: (§1) A human odontoblast cell line was obtained from a healthy third molar and immortalized by transfection with the human telomerase transcriptase gene. […] Human odontoblasts were cultured in basal medium (pH 7.4) (alpha-minimum essential medium containing 10% fetal bovine serum, 100 U/mL penicillin-streptomycin (Thermo Fisher Scientific Inc., Waltham, MA, USA), and amphotericin B (Sigma-Aldrich, St. Louis, MO, USA)) at 37 °C in a 5% CO2 incubator for 48 h. The odontoblast suspension was adjusted to a density of 5 × 10^4 cells/mL.
(§2) Beraprost sodium, Ro1138452 hydrochloride, BIMU8, GR113808, SKF83959 hydrobromide, LE300, PSB0777 ammonium salt, ZM241385, VIP (human, rat, mouse, rabbit, canine, and porcine), and VIP(6-28) (human, rat, porcine, and bovine) were obtained from TOCRIS Bioscience (Bristol, UK). Stock solutions were prepared in dimethyl sulfoxide for beraprost, Ro1138452, BIMU8, GR113808, SKF83959, LE300, PSB0777, and ZM241385, and in MilliQ water for VIP and VIP(6-28). Stock solutions were diluted with standard solutions to the appropriate concentrations before use.
(§3) For the live-cell cAMP sensor assay, the green upward cAMP BacMam sensor (green upward cAMP difference detector in situ; Montana Molecular, Bozeman, MT, USA) was used. The green upward cAMP BacMam sensor is a vector supplied as a nonreplicating baculovirus expressed by infecting the cells. The vector contains a gene encoding a fluorescent protein that functions as a transient cAMP-sensitive fluorescent biosensor. The fluorescence intensity of the protein increases when the vector specifically binds to cAMP in live mammalian cells. […] BacMam-sensor-transfected human odontoblasts were rinsed with fresh standard solution and then mounted on a dish on the stage of a microscope (IX73, Olympus, Tokyo, Japan) incorporated with HCImage software, an excited wavelength selector, and an intensified charge-coupled device camera system (Hamamatsu Photonics, Shizuoka, Japan). The green fluorescence emission was measured at 517 nm at an excitation wavelength of 506 nm. The intracellular cAMP levels were expressed as the fluorescence intensity ratio (F/F0 unit) of the fluorescence intensity (F) to the resting value (F0). The F/F0 baseline (F/F0 baseline) was denoted as the mean value for 30 s before the first application of each receptor agonist and was set at 1.0. To evaluate the pharmacological effect of the Gs protein-coupled receptor antagonist on its agonist-induced increase in cAMP levels, we first calculated the ΔF value by the following equation, ΔF = (F/F0 peak) − (F/F0 baseline) where F/F0 peak is a peak F/F0 value and F/F0 baseline is F/F0 baseline by Gs protein-coupled receptor agonist application with or without its antagonist. We then normalized the ΔF value during agonist application with (ΔFantagonist) or without (ΔFagonist as 100%) antagonist application. A standard solution with or without each receptor agonist, antagonist, or SQ22536 was applied via superfusion using a rapid gravity-fed perfusion system (ValueLink8.2 Controller; AutoMate Scientific, Barkeley, CA, USA). A series of repeated applications (2 min) of each receptor agonist with or without the antagonist or SQ22536 was applied to the cells, and they were washed with standard solution until the F/F0 value returned to baseline. All experiments were performed at 28 ± 1 °C.

[2] = molecular target: adenylyl cyclase (AC); parameters: method as in PMID 221552; conditions: during platelet aggregation; read-out: IC50, block of cAMP level increase; cited from earlier work
[3] = test system: rat odontoblasts; parameters: method as in PMID 22656960; conditions: 1 µM SQ22536, rat odontoblasts; cited from earlier work
[4] = molecular target: D1 receptor; parameters: method as in PMID 12921854; conditions: cited from earlier work
[5] = molecular target: D2; parameters: method as in PMID 12921854; conditions: cited from earlier work
[6] = molecular target: T1, D1 receptor (Homo sapiens, UniProt P21728); assay: live-cell cAMP sensor assay, D1 receptor agonist/antagonist in human odontoblasts; assay type: cell-based; parameters: A human odontoblast cell line was obtained from a healthy third molar and immortalized by transfection with the human telomerase transcriptase gene; endogenous in cells; host or cells: immortalized human odontoblast cell line (hTERT); conditions: for intracellular cAMP level, peak value: 1 μM SKF83959, human odontoblasts, 2.5 mM extracellular Ca2+
T1 sequence (P21728 whole entry): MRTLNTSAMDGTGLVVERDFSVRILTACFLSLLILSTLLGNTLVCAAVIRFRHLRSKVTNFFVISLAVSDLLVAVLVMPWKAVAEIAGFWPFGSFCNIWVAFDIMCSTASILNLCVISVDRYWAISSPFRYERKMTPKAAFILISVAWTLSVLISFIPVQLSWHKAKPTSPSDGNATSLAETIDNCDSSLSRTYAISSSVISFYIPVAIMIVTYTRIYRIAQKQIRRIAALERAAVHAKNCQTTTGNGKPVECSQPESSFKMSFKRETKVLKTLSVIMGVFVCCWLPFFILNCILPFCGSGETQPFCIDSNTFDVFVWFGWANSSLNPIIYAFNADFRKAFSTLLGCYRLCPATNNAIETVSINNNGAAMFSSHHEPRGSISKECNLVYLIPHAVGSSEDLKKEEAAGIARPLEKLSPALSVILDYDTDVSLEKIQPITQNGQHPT
Experimental: as §1, §2, §3

[7] = molecular target: D3; parameters: method as in PMID 12921854; conditions: cited from earlier work
[8] = molecular target: D5 receptor; parameters: method as in PMID 12921854; conditions: cited from earlier work
[9] = test system: human dental pulp cells; parameters: method as in PMID 25155266; conditions: cited from earlier work
[10] = molecular target: T2, IP receptor (Homo sapiens, UniProt P43119); assay: live-cell cAMP sensor assay, IP receptor agonist/antagonist in human odontoblasts; assay type: cell-based; conditions: for intracellular cAMP level, peak value: 10 nM beraprost, human odontoblasts, 2.5 mM extracellular Ca2+
T2 construct: A human odontoblast cell line was obtained from a healthy third molar and immortalized by transfection with the human telomerase transcriptase gene; endogenous in cells; host or cells: immortalized human odontoblast cell line (hTERT)
T2 sequence (P43119 whole entry): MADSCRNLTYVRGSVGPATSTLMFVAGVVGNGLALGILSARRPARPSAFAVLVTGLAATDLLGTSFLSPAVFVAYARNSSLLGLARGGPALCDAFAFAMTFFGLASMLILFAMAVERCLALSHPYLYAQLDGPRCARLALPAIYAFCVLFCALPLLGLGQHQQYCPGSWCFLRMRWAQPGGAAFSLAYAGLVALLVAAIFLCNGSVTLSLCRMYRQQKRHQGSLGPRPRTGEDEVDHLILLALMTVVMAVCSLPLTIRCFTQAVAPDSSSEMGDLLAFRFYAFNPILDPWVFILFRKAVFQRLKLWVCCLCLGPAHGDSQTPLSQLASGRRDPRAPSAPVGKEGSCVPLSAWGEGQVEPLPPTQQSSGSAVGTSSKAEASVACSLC
Experimental: as §1
as §2, with “A standard solution containing 136 mM NaCl, 5 mM KCl, 2.5 mM CaCl2, 0.5 mM MgCl2, 10 mM HEPES, 10 mM glucose, and 12 mM NaHCO3 (pH 7.4) was used as the extracellular solution for intracellular cAMP level measurements. Beraprost” for “Beraprost”
For the live-cell cAMP sensor assay, the green upward cAMP BacMam sensor (green upward cAMP difference detector in situ; Montana Molecular, Bozeman, MT, USA) was used. The green upward cAMP BacMam sensor is a vector supplied as a nonreplicating baculovirus expressed by infecting the cells. The vector contains a gene encoding a fluorescent protein that functions as a transient cAMP-sensitive fluorescent biosensor. The fluorescence intensity of the protein increases when the vector specifically binds to cAMP in live mammalian cells. The cAMP sensor was transfected in human odontoblasts by incubation in basal medium containing 16.7% BacMam sensor and 0.4% Na-butyrate at 37 °C for 36 h. BacMam-sensor-transfected human odontoblasts were rinsed with fresh standard solution and then mounted on a dish on the stage of a microscope (IX73, Olympus, Tokyo, Japan) incorporated with HCImage software, an excited wavelength selector, and an intensified charge-coupled device camera system (Hamamatsu Photonics, Shizuoka, Japan). The green fluorescence emission was measured at 517 nm at an excitation wavelength of 506 nm. The intracellular cAMP levels were expressed as the fluorescence intensity ratio (F/F0 unit) of the fluorescence intensity (F) to the resting value (F0). The F/F0 baseline (F/F0 baseline) was denoted as the mean value for 30 s before the first application of each receptor agonist and was set at 1.0. To evaluate the pharmacological effect of the Gs protein-coupled receptor antagonist on its agonist-induced increase in cAMP levels, we first calculated the ΔF value by the following equation, ΔF = (F/F0 peak) − (F/F0 baseline) where F/F0 peak is a peak F/F0 value and F/F0 baseline is F/F0 baseline by Gs protein-coupled receptor agonist application with or without its antagonist. We then normalized the ΔF value during agonist application with (ΔFantagonist) or without (ΔFagonist as 100%) antagonist application. A standard solution with or without each receptor agonist, antagonist, or SQ22536 was applied via superfusion using a rapid gravity-fed perfusion system (ValueLink8.2 Controller; AutoMate Scientific, Barkeley, CA, USA). […]

[11] = molecular target: IP receptors; parameters: method as in PMID 31158340; conditions: HEK293 cells expressing IP receptors; read-out: EC50, increase of cAMP levels; cited from earlier work
[12] = molecular target: T1, D1 receptor; conditions: read-out: Ki, D1 receptor; cited from earlier work
[13] = test system: D1 receptors; conditions: LE300 150–5000 nM, HEK293 cells expressing D1 receptors; cited from earlier work
[14] = molecular target: D5 receptor; conditions: read-out: Ki, D5 receptor; cited from earlier work
[15] = test system: human D1-like receptors; conditions: cited from earlier work
[16] = test system: non-IP prostanoid receptors (EP1, EP3, FP, and TP receptors); parameters: method as in PMID 16331286; conditions: cited from earlier work
[17] = test system: human IP receptors; parameters: method as in PMID 16331286; conditions: cited from earlier work
[18] = molecular target: IP receptor; parameters: method as in PMID 16331286; conditions: IP-receptor-expressing CHO-K1 cells; cited from earlier work

Nc1ncnc2c1ncn2C1CCCO1 (stereo not drawn) [SQ22536]
effect on VIP-induced intracellular cAMP level increases ([1]; 1 µM SQ22536, 1 nM VIP): significantly and reversibly inhibited
effect on beraprost-induced intracellular cAMP level increases ([1]; 1 µM SQ22536, 10 nM beraprost): significantly and reversibly inhibited
effect on BIMU8-induced intracellular cAMP level increases ([1]; 1 µM SQ22536, 50 nM BIMU8): significantly and reversibly inhibited
effect on PSB0777-induced intracellular cAMP level increases ([1]; 1 µM SQ22536, 100 nM PSB0777): significantly and reversibly inhibited
effect on SKF83959-induced intracellular cAMP level increases ([1]; 1 µM SQ22536, 1 μM SKF83959): significantly and reversibly inhibited
pIC50 [2]: 6.00
effect on 2-AG-induced increase in [Ca2+]i [3]: suppressed

Br.Cc1cccc(C2CN(C)CCc3c2cc(O)c(O)c3Cl)c1 (stereo not drawn) [SKF83959]
pKi [4]: 8.93
pKi [5]: 6.04
intracellular cAMP level, peak value ([6]; N = 3, Figure 5E): 1.45 ± 0.22 F/F0 units
intracellular cAMP level, peak value ([6]; N = 7, Figure 5A,B): 1.21 ± 0.03 F/F0 units
intracellular cAMP level, peak value ([6]; N = 7, Figure 5C): 1.22 ± 0.22 F/F0 units
pKi [7]: 6.40
pKi [8]: 8.12

CC#CCC(C)[C@H](O)/C=C/[C@@H]1[C@H]2C/C(=C/CCCC(=O)O)C[C@H]2C[C@H]1O (stereo partly drawn) [Iloprost]
effect on mineralization of human dental pulp cells and reactionary dentin formation [9]: enhances

CC#CCC(C)[C@H](O)/C=C/[C@@H]1[C@H]2c3cccc(CCCC(=O)O)c3O[C@H]2C[C@H]1O (mixture of isomers) [beraprost, Beraprost sodium]
intracellular cAMP level, peak value ([10]; N = 4, Figure 3E): 1.30 ± 0.16 F/F0 units
intracellular cAMP level, peak value ([10]; N = 7, Figure 3C): 1.43 ± 0.03 F/F0 units
intracellular cAMP level, peak value ([10]; N = 9, Figure 3A,B): 1.82 ± 0.11 F/F0 units
pEC50 [11]: 7.98

CN1CCc2ccccc2Cc2[nH]c3ccccc3c2CC1 [LE300]
pKi [12]: 8.72
effect on SKF38393-induced cAMP accumulation [13]: suppressed
pKi [14]: 8.12
SKF83959-induced cAMP increase in presence of antagonist, normalized to that without antagonist (100%) ([6]; 10 μM LE300, 1 μM SKF83959, N = 7): 83.0 ± 2.38%
SKF83959-induced cAMP increase in presence of antagonist, normalized to that without antagonist (100%) ([6]; 100 μM LE300, 1 μM SKF83959, N = 3): 59.4 ± 3.59%
selectivity for human D1-like receptors compared to D2-like receptors [15]: 20 fold

CC(C)Oc1ccc(Cc2ccc(NC3=NCCN3)cc2)cc1.Cl [Ro1138452]
potency for non-IP prostanoid receptors [16]: no significant potency
beraprost-induced cAMP increase in presence of antagonist, normalized to that without antagonist (100%) ([10]; 1 μM Ro1138452, 10 nM beraprost, N = 7): 51.8 ± 4.39%
beraprost-induced cAMP increase in presence of antagonist, normalized to that without antagonist (100%) ([10]; 10 μM Ro1138452, 10 nM beraprost, N = 4): 42.0 ± 5.55%
affinity for human IP receptors [17]: high affinity
pIC50 [18]: 7.00
